Results taken from patent US20230123334A1, “AMINO LIPID COMPOUND, PREPARATION METHOD THEREFOR, AND APPLICATION THEREOF” (SHENZHEN SHENXIN BIOTECHNOLOGY CO., LTD., priority 2020, published 2023).

System: HEK293 cells
Experiment: Preliminary screening as DNA vectors, GFP transfection of HEK293 cells
Type: cell-based
Protocol: Cell line: HEK293 cells (ATCC CRL-1573™)
Medium: DMEM supplemented with 10% fetal bovine serum (Invitrogen)
Mode of screening: cell transfection on 96-well plates
Detection (readout): percentage of the number of GFP fluorescent cells relative to the total number of cells (the total number of cells was measured using nucleus dye Hoechst—see FIG. 2). Lipofectamine2000 (Invitrogen) was used as positive control, according to the manufacturer's instructions.
Method: an 8-channel pipette was used for sample addition. The contents shown were for a single well of a 96-well flat plate.
1. The compound (0.01 mmol) prepared in Example 1 was dissolved in 1 mL of anhydrous ethanol. After ultrasonically dissolved, 10 μL of the resultant amino lipid solution in ethanol was taken and mixed with 5 μL of DOPE solution in ethanol (0.01 m), and then to the obtained mixture was added 35 μL of 0.2M sodium acetate buffer (pH 5.6), and 50 μL of liposome solution was prepared by vortex at a constant rotating speed for 30 s. 4 μL was taken from the 50 μL liposome solution and added to 46 μL of 0.02M sodium acetate buffer (pH 5.6), and the final liposome solution was formed by vortex at a constant rotating speed for 30 s. 5 μL was taken from the final liposome solution and mixed with 75 ng plasmid DNA (psin-EGFP-IRES-Puro, Clontech) dissolved in 5 μL of 0.02 M sodium acetate buffer, and was allowed to stay at room temperature for 30 min to form a lipid/DNA transfection complex.
2. 10 μL of the lipid/DNA transfection complex was incubated at room temperature for 30 min, followed by addition of 90 μL of fresh resuspended cells (3-5×10^4 cells) and mixing with a pipette. 100 μL of cells+lipid/DNA complex was transferred to separate wells of a 96-well culture plate immediately, and placed in an incubator containing 5% CO2 at 37° C.
3. Hoechst33258 (Invitrogen) was added at a final concentration of 0.2 μg/mL to the cells 20 to 24 hours after initial cell transfection, and cultured in darkness at 37° C. for 15 min. Afterwards, the cells were washed once with a PBS solution, and then added with medium for culture for 20 to 24 h.
4. The cells were placed in a high-throughput confocal microscope (Molecular Devices ImageXpress), and four visual fields of the image of the cells were captured for each well, and images at three laser wavelengths were captured for each sample: bright field images of cells (FIG. 2(a) and FIG. 2(b)), Hoechst-staining images showing total nuclei (FIG. 2(c) and FIG. 2(d)) and GFP images showing success in transfection with the plasmid DNA and the expression of GFP (FIG. 2(e) and FIG. 2(f)). MetaXpress software was used to separately count the cells in the Hoechst-staining images and GFP images, and then the number of cells expressing GFP was divided by the total number of nuclei to give the absolute cell transfection efficiency. The absolute transfection efficiency was calculated as follows: […]

[1] = HEK293 cells, lipid/DOPE liposome with 75 ng plasmid DNA (psin-EGFP-IRES-Puro), number of cells expressing GFP divided by total number of nuclei (Hoechst)
[2] = amino lipid/DOPE liposome with 75 ng plasmid DNA (psin-EGFP-IRES-Puro), number of GFP-expressing cells divided by total nuclei (Hoechst)

Compound | Absolute DNA transfection efficiency in HEK293 cells [1] | Absolute DNA transfection efficiency in HEK293 cells [2]
CCCCCCCCCCCCN(CCCCCCCCCCCC)c1nc(NCCCCCCCCCCC)nc(NCCN(C)C)n1 [Compound N112N12D1] | 0.7% | 
CCCCCCCCCCCCN(CCCCCCCCCCCC)c1nc(NCCCCCCCCCCC)nc(NCCN2CCOCC2)n1 [Compound N112N12D2] | 0.0% | 
CCCCCCCCCCCCN(CCCCCCCCCCCC)c1nc(NCCCCCCCCCCC)nc(NCCN(CC)CC)n1 [Compound N112N12D7] | 0.4% | 
CCCCCCCCCCCCN(CCCCCCCCCCCC)c1nc(NCCCCCCCCCCC)nc(NCCCN2CCOCC2)n1 [Compound N112N12D8] | 0.0% | 
CCCCCCCCCCCCN(CCCCCCCCCCCC)c1nc(NCCCCCCCCCCC)nc(NCCCN2CCN(C)CC2)n1 [Compound N112N12D9] | 0.1% | 
CCCCCCCCCCCCN(CCCCCCCCCCCC)c1nc(NCCCCCCCCCCC)nc(NCC2CCN(C)CC2)n1 [Compound N112N12D10] | 0.7% | 
CCCCCCNc1nc(NCCN(C)C)nc(SCCCCCC)n1 [S6N6 D1] |  | 0.1%
CCCCCCNc1nc(NCCN2CCOCC2)nc(SCCCCCC)n1 [S6N6 D2] |  | 0.0%
CCCCCCNc1nc(NCCN2CCCC2)nc(SCCCCCC)n1 [S6N6 D3] |  | 0.0%
CCCCCCNc1nc(NCCN2CCCCC2)nc(SCCCCCC)n1 [S6N6 D4] |  | 0.0%
CCCCCCNc1nc(NCCN2CCN(C)CC2)nc(SCCCCCC)n1 [S6N6 D5] |  | 0.0%
CCCCCCNc1nc(NCCCN(C)C)nc(SCCCCCC)n1 [S6N6 D6] |  | 0.0%
CCCCCCNc1nc(NCCN(CC)CC)nc(SCCCCCC)n1 [S6N6 D7] |  | 0.0%
CCCCCCNc1nc(NCCCN2CCOCC2)nc(SCCCCCC)n1 [S6N6 D8] |  | 0.0%
CCCCCCNc1nc(NCCCN2CCN(C)CC2)nc(SCCCCCC)n1 [S6N6 D9] |  | 0.0%
CCCCCCNc1nc(NCC2CCN(C)CC2)nc(SCCCCCC)n1 [S6N6 D10] |  | 0.0%
CCCCCCCNc1nc(NCCN(C)C)nc(SCCCCCC)n1 [S6N7 D1] |  | 0.1%
CCCCCCCNc1nc(NCCN2CCOCC2)nc(SCCCCCC)n1 [S6N7 D2] |  | 0.0%
CCCCCCCNc1nc(NCCN2CCCC2)nc(SCCCCCC)n1 [S6N7 D3] |  | 0.0%
CCCCCCCNc1nc(NCCN2CCCCC2)nc(SCCCCCC)n1 [S6N7 D4] |  | 1.1%

Compound | Absolute DNA transfection efficiency in HEK293 cells [1] | Absolute DNA transfection efficiency in HEK293 cells [2]
CCCCCCCNc1nc(NCCN2CCN(C)CC2)nc(SCCCCCC)n1 [S6N7 D5] |  | 3.7%
CCCCCCCNc1nc(NCCCN(C)C)nc(SCCCCCC)n1 [S6N7 D6] |  | 0.4%
CCCCCCCNc1nc(NCCCN2CCOCC2)nc(SCCCCCC)n1 [S6N7 D8] |  | 0.0%
CCCCCCCNc1nc(NCCCN2CCN(C)CC2)nc(SCCCCCC)n1 [S6N7 D9] |  | 0.2%
CCCCCCCNc1nc(NCC2CCN(C)CC2)nc(SCCCCCC)n1 [S6N7 D10] |  | 2.9%
CCCCCCCCNc1nc(NCCN(C)C)nc(SCCCCCC)n1 [S6N8 D1] |  | 0.2%
CCCCCCCCNc1nc(NCCN2CCOCC2)nc(SCCCCCC)n1 [S6N8 D2] |  | 0.3%
CCCCCCCCNc1nc(NCCN2CCCC2)nc(SCCCCCC)n1 [S6N8 D3] |  | 2.0%
CCCCCCCCNc1nc(NCCN2CCCCC2)nc(SCCCCCC)n1 [S6N8 D4] |  | 1.7%
CCCCCCCCNc1nc(NCCN2CCN(C)CC2)nc(SCCCCCC)n1 [S6N8 D5] |  | 3.4%
CCCCCCCCNc1nc(NCCCN(C)C)nc(SCCCCCC)n1 [S6N8 D6] |  | 0.6%
CCCCCCCCNc1nc(NCCN(CC)CC)nc(SCCCCCC)n1 [S6N8 D7] |  | 0.9%
CCCCCCCCNc1nc(NCCCN2CCOCC2)nc(SCCCCCC)n1 [S6N8 D8] |  | 0.0%
CCCCCCCCNc1nc(NCCCN2CCN(C)CC2)nc(SCCCCCC)n1 [S6N8 D9] |  | 1.2%
CCCCCCCCNc1nc(NCC2CCN(C)CC2)nc(SCCCCCC)n1 [S6N8 D10] |  | 0.4%
CCCCCCCCCNc1nc(NCCN(C)C)nc(SCCCCCC)n1 [S6N9 D1] |  | 0.1%
CCCCCCCCCNc1nc(NCCN2CCOCC2)nc(SCCCCCC)n1 [S6N9 D2] |  | 0.2%
CCCCCCCCCNc1nc(NCCN2CCCC2)nc(SCCCCCC)n1 [S6N9 D3] |  | 0.4%
CCCCCCCCCNc1nc(NCCN2CCCCC2)nc(SCCCCCC)n1 [S6N9 D4] |  | 0.4%
CCCCCCCCCNc1nc(NCCN2CCN(C)CC2)nc(SCCCCCC)n1 [S6N9 D5] |  | 7.9%

Compound | Absolute DNA transfection efficiency in HEK293 cells [1] | Absolute DNA transfection efficiency in HEK293 cells [2]
CCCCCCCCCNc1nc(NCCCN(C)C)nc(SCCCCCC)n1 [S6N9 D6] |  | 1.5%
CCCCCCCCCNc1nc(NCCN(CC)CC)nc(SCCCCCC)n1 [S6N9 D7] |  | 1.1%
CCCCCCCCCNc1nc(NCCCN2CCOCC2)nc(SCCCCCC)n1 [S6N9 D8] |  | 0.0%
CCCCCCCCCNc1nc(NCCCN2CCN(C)CC2)nc(SCCCCCC)n1 [S6N9 D9] |  | 0.8%
CCCCCCCCCNc1nc(NCC2CCN(C)CC2)nc(SCCCCCC)n1 [S6N9 D10] |  | 4.3%
CCCCCCCCCCCNc1nc(NCCN(C)C)nc(SCCCCCC)n1 [S6N11 D1] |  | 1.5%
CCCCCCCCCCCNc1nc(NCCN2CCOCC2)nc(SCCCCCC)n1 [S6N11 D2] |  | 0.2%
CCCCCCCCCCCNc1nc(NCCN2CCCC2)nc(SCCCCCC)n1 [S6N11 D3] |  | 2.8%
CCCCCCCCCCCNc1nc(NCCN2CCCCC2)nc(SCCCCCC)n1 [S6N11 D4] |  | 3.3%
CCCCCCCCCCCNc1nc(NCCN2CCN(C)CC2)nc(SCCCCCC)n1 [S6N11 D5] |  | 17.5%
CCCCCCCCCCCNc1nc(NCCCN(C)C)nc(SCCCCCC)n1 [S6N11 D6] |  | 1.9%
CCCCCCCCCCCNc1nc(NCCN(CC)CC)nc(SCCCCCC)n1 [S6N11 D7] |  | 2.2%
CCCCCCCCCCCNc1nc(NCCCN2CCOCC2)nc(SCCCCCC)n1 [S6N11 D8] |  | 1.5%
CCCCCCCCCCCNc1nc(NCCCN2CCN(C)CC2)nc(SCCCCCC)n1 [S6N11 D9] |  | 21.1%
CCCCCCCCCCCNc1nc(NCC2CCN(C)CC2)nc(SCCCCCC)n1 [S6N11 D10] |  | 7.9%
CCCCCCCCCCCCNc1nc(NCCN(C)C)nc(SCCCCCC)n1 [S6N12 D1] |  | 4.7%
CCCCCCCCCCCCNc1nc(NCCN2CCOCC2)nc(SCCCCCC)n1 [S6N12 D2] |  | 0.9%
CCCCCCCCCCCCNc1nc(NCCN2CCCC2)nc(SCCCCCC)n1 [S6N12 D3] |  | 6.2%
